Experimental data reported in article PMC8433439, “Bivalent ligands promote endosomal trafficking of the dopamine D3 receptor-neurotensin receptor 1 heterodimer” (Communications Biology, 2021).
“Also recorded” adds a separate entry of the source.

Legend:
D3R [1] = target: T1, D3R (Homo sapiens, UniProt P35462); test: IPOne accumulation, D3R-mediated G protein activation, HEK293T cells with D3R and Gqprom; type: cell-based; parameters: host or cells: HEK293T, transient; settings: compared to the reference agonist quinpirole
Experimental: Supplementary Figure 7 . Activation of D3R in transiently transfected HEK293T cells. D3R-mediated activation of G proteins was measured by stimulation of HEK293T cells transiently transfected with D3R and a promiscuous Gq protein (Gqprom). Subsequent f ormation of IP3 as second messenger of the Gq signaling pathway was determined employing the IPOne assay (CisBio). […]
TransIT293 in a DNA to reagent ratio of 1 : 3. After 24h, cells were detached using Versene […]
Germany) and additionally cultivated f or 24 h at 37°C, 5% CO 2. After replacement of the medium with 10 µL stimulation buffer (CisBio, Codolet, France), 5 µL of the test compounds dissolved in stimulation buffer were added. After 90 min at 37°C, 5 µL of IP1 reagent mix and 5 µ L of AB r eag ent mix in lysis buff er (CisBio) were added, f ollowed by a 60 min incubation at room temperature under light exclusion. The FRET ratio was determined using a CLARIOstar microplate reader with a f ilter […]
A sigmoid curve was fitted using the algorithms for three-parameter non-linear regression provided by GraphPad Pr ism 6.0 and the data were normalized to […]

D3R [2] = target: T1, D3R; test: Radioligand competition/saturation binding with [3H]spiperone, membranes of HEK293T cells monoexpressing D3R; settings: read-out: % Specific binding [³H]Spiperone, D3R; for remaining activity at 0.001 µM: log concentration -9.00; for remaining activity at 0.0001 µM: log concentration -10.00; for remaining activity at 1 pM: log concentration -12.00
Experimental: (§1) Affinities of the bivalent ligands were determined by radio-ligand displacement in analogy to previously described protocols[76]. […] Competition binding experiments were carried out using a protein concentration of 4–18 µg protein per well for the coexpression systems and 1–12 µg per well for the monoexpression system in a total volume of 200 µL. […] All binding experiments were carried out at 37 °C in binding buffer consisting of 50 mM Tris pH 7.4, 5 nM MgCl2, 1 mM EDTA, 100 µg ∙ mL^−1 bacitracin and 100 µg ∙ mL^−1 soybean trypsin inhibitor. Data were normalised to non-specific and total binding and analysed employing one- or two-site competition binding algorithms implemented in GraphPad Prism for windows, version 6.0 (GraphPad Software, San Diego California, USA, www.graphpad.com).

D3R-Rluc = target: T2, D3R-Rluc (Homo sapiens, UniProt P35462); test: Bystander BRET internalisation (rGFP-CAAX / rGFP-FYVE), monoexpressed D3R-Rluc; type: cell-based; settings: 1 µM quinpirole or 10 nM bivalent ligand
T2 construct: 24-aa linker […]; expressed in transfected cells; host or cells: HEK293SL or Δβ-arrestin-HEK, transient
Experimental: HEK293SL cells[71] or Δβ-arrestin-HEK[49] were detached with Trypsin/EDTA (Wisent Inc., St-Bruno, QC, Canada) and 350,000 cells were transiently transfected in suspension using polyethyleneimine. 5 ng of NTSR1-Rluc or 400 ng of D3R-Rluc8 were either mono-or cotransfected with 600 ng of untagged D3R or 5 ng NTSR1, respectively, along with 300 ng rGFP-CAAX or 300 ng rGFP-FYVE and ssDNA to a total of 1 µg DNA. Cells were seeded in white poly-L-ornithine (Sigma Aldrich) coated 96-well plates (Greiner Bio one) at a density of 35,000 cells per well. 48 hours after transfection, cells were washed once with PBS and serum starved for 30–45 min in Tyrode’s Buffer at 37 °C, 5% CO2. Coelenterazine-h was added in a final concentration of 3 µM and cells were further incubated at 37 °C, 5% CO2. After 3 min, ligands were added and cells were stimulated for 30 min, 37 °C, 5% CO2 before determining the BRETratio using a Mithras LB940 multimode microplate reader with 480-20 nm (donor) and 530-20 nm (acceptor) filters. […] Ligand-induced effects were monitored by calculation of ΔBRET, which was determined as the difference in BRETratio between the ligand-treated conditions and vehicle-treated controls. Data were analysed by three-parameter sigmoid or bell-shaped nonlinear regression using the algorithms provided by GraphPad Prism 6.0.

D3R [3] = target: T1, D3R; test: Surface ELISA, monoexpressed Flag-D3R; type: cell-based; parameters: host or cells: HEK293T, transient; settings: 1 µM quinpirole, 1 µM NT(8-13) or 10 nM 1d, 30 min
Experimental: β-arrestin 2 recruitment (bystander BRET)6
HEK293SL cells were diluted to a density of 350 ,000 cells ∙ mL-1 and transiently transfected using
to a total DNA amount of 1 µg . 35,000 cells were plated in a 96-well plate coated with poly L- ornithine
and cultivated f or 48 h at 37°C, 5% CO2. On the day of the experiment, the cell medium was aspirated
and each well was washed once with PBS and serum starved f or 30-45 min. A Deep Blue C dilution
ligand dilution in Tyrode’s buffer was added. After additional stimulation for 5 min at 37°C, 5% CO2,
BRET2 was determined using a Mithras LB940 multimode microplate reader with 400- 70 nm (donor)
Obtained BRETratios were normalized to vehicle
non- linear regression employing the models implemented in GraphPad Prism 6.

D3R [4] = target: T1, D3R; test: biochemical
Experimental: as §1

T1 sequence (P35462 whole entry): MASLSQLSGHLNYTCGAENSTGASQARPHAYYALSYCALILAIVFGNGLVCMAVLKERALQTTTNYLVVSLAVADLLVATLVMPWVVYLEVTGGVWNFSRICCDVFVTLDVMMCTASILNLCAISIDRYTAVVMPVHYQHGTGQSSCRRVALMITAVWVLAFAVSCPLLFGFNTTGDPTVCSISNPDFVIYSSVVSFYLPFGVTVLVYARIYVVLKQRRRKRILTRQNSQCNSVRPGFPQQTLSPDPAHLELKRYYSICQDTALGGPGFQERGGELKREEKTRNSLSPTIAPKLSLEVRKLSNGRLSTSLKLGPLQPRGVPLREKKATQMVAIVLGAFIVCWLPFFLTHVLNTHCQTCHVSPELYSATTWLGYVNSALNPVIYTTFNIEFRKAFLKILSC
T2 sequence (P35462 whole entry): as above

Row | SMILES | D3R-mediated activation of G proteins (D3R [1]) | remaining activity at 0.001 µM (D3R [2]) [%] | remaining activity at 0.0001 µM (D3R [2]) [%] | remaining activity at 1 pM (D3R [2]) [%] | internalisation of monoexpressed D3R-Rluc (D3R-Rluc) | surface expression of monoexpressed D3R (D3R [3]) | remaining activity at 0.302 µM (D3R [2]; log concentration -6.52) [%] | remaining activity at 0.0302 µM (D3R [2]; log concentration -7.52) [%] | remaining activity at 0.00302 µM (D3R [2]; log concentration -8.52) [%] | remaining activity at 0.000302 µM (D3R [2]; log concentration -9.52) [%] | remaining activity at 30.2 pM (D3R [2]; log concentration -10.52) [%] | Ki (D3R [4]) [nM] | remaining activity at 0.01 µM (D3R [2]; log concentration -8.00) [%] | remaining activity at 10 pM (D3R [2]; log concentration -11.00) [%]
1 | CCCN(CCCCc1cn(-c2ccc(-c3ccc(C(=O)NCCOCCOCCOCCOCCOCCOCCC(=O)N[C@@H](CCCNC(=N)N)C(=O)N[C@@H](CCCNC(=N)N)C(=O)N4CCC[C@H]4C(=O)N[C@@H](Cc4ccc(O)cc4)C(=O)N[C@H](C(=O)N[C@@H](CC(C)C)C(=O)O)[C@@H](C)CC)cc3)cc2)nn1)C1Cc2ccccc2C1 [1a] | full D3R agonists | 48.9 | 74.5 | 88.8 |  |  |  |  |  |  |  |  |  | 
2 | CCCN(CCCCc1cn(-c2ccc(-c3ccc(C(=O)NCCOCCOCCOCCOCCOCCOCCC(=O)NCCOCCOCCOCCOCCOCCOCCC(=O)NCCOCCOCCOCCOCCOCCOCCC(=O)NCCOCCOCCOCCOCCOCCOCCC(=O)N[C@@H](CCCNC(=N)N)C(=O)N[C@@H](CCCNC(=N)N)C(=O)N4CCC[C@H]4C(=O)N[C@@H](Cc4ccc(O)cc4)C(=O)N[C@H](C(=O)N[C@@H](CC(C)C)C(=O)O)[C@@H](C)CC)cc3)cc2)nn1)C1Cc2ccccc2C1 [1d] | full D3R agonists |  | 92.1 | 103 | could not detect internalisation | unchanged; also recorded: did not lead to apparent changes in surface expression | -0.137 | 12.6 | 46.4 | 92.1 | 96.8 |  |  | 
3 | CC[C@H](C)[C@H](NC(=O)[C@H](Cc1ccc(O)cc1)NC(=O)[C@@H]1CCCN1C(=O)[C@H](CCCNC(=N)N)NC(=O)[C@H](CCCNC(=N)N)NC(=O)CCOCCOCCOCCOCCOCCOCCNC(=O)c1ccc(-c2ccc(-n3cc(CCCCN4CCN(c5ccccc5OC)CC4)nn3)cc2)cc1)C(=O)N[C@@H](CC(C)C)C(=O)O [2a] | weak partial agonist or antagonist-like behavior | 75 | 90 | 102 |  |  |  |  |  |  |  | 4.4 | 44.3 | 92
4 | CC[C@H](C)[C@H](NC(=O)[C@H](Cc1ccc(O)cc1)NC(=O)[C@@H]1CCCN1C(=O)[C@H](CCCNC(=N)N)NC(=O)[C@H](CCCNC(=N)N)NC(=O)CCOCCOCCOCCOCCOCCOCCNC(=O)CCOCCOCCOCCOCCOCCOCCNC(=O)CCOCCOCCOCCOCCOCCOCCNC(=O)CCOCCOCCOCCOCCOCCOCCNC(=O)c1ccc(-c2ccc(-n3cc(CCCCN4CCN(c5ccccc5OC)CC4)nn3)cc2)cc1)C(=O)N[C@@H](CC(C)C)C(=O)O [2d] | weak partial agonist or antagonist-like behavior |  |  | 94.4 | could not detect internalisation |  |  |  |  |  |  |  |  | 
